Experimental data as given in patent US20260226493A1, “HERBICIDE RESISTANT PLANTS” (SYNGENTA CROP PROTECTION AG, priority 2023, published 2026).

Experiments:
Experiment in all cases: BIO3-BIO1 mutant enzyme activity in the presence of herbicide, percentage inhibition (fluorometric DAPA assay)
Format in all cases: biochemical
Details in all cases: read-out: percentage inhibition
[1] = target: T1, Arabidopsis thaliana BIO3-BIO1 (BioDA) mutants (Arabidopsis thaliana, UniProt B0F481, S704H)
T1 construct: with the predicted N-terminal mitochondrial transit peptide removed; 6xHis-tag (N); thrombin cleavage site (N); made in house; host or cells: E. coli BL21 (DE3) bioA
T1 sequence (B0F481 23-833 S704H): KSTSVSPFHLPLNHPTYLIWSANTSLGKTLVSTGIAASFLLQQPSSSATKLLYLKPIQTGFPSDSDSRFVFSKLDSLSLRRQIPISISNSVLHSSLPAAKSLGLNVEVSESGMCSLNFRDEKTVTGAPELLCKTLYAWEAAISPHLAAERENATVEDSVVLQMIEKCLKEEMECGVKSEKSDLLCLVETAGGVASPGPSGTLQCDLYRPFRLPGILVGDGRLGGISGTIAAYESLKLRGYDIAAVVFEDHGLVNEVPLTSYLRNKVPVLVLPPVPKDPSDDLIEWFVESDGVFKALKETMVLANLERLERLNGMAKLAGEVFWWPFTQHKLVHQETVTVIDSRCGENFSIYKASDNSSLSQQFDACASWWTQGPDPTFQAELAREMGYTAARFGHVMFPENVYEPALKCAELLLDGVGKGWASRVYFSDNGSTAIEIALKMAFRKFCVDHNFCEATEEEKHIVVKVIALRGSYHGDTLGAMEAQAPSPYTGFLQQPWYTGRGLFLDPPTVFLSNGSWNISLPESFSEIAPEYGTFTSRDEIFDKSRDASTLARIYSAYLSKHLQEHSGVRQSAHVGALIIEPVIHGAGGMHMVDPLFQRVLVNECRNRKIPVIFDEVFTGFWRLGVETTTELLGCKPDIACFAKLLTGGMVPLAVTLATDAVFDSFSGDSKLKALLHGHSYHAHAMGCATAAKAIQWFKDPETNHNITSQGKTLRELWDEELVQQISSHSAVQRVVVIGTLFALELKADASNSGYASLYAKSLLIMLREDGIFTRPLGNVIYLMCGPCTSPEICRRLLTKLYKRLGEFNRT
Description: (§1) A pet-24 plasmid containing a DNA sequence encoding each identified variant mutant of BIO3-BIO1 derived from Arabidopsis thaliana from example 5 above, as shown in Table 13 below and as shown in full in SEQ ID NOs: 15 to 155, codon-optimised for expression in E. coli, with an N-terminal 6×His-tag and thrombin cleavage site and under control of a T7 promoter, and was synthesised by Twist Bioscience, in a similar manner to SEQ ID NO:311. These plasmids were then expressed in E. coli BL21 (DE3) bioA with 50 μg/mL kanamycin and 25 μg/mL chloramphenicol selection. Overnight cultures grown at 37° C. were used to inoculate 8×500 mL AIM in shake flasks at a ratio of 1:100. Cultures were grown at 37° C., 200 rpm for 3.5 hours and then overnight at 20° C. Cells were harvested by centrifugation for 30 minutes at 10 000 g. Cells were stored at −80° C. until extraction. 30 g of cell pellet from was thawed in 120 mL of IMAC buffer A (20 mM HEPES pH7.5, 25 mM imidazole, 500 mM sodium chloride, 0.15 mM pyridoxal phosphate, 0.5 mM TCEP, 1× complete Protease Inhibitor Tablet (Roche)). The resuspension was passed through a cell disrupter at 18 000 PSI and centrifuged at 50 000 g for 25 minutes at 4° C. The His-tagged BIO3-BIO1 protein was purified from the extract supernatant on an AKTA avant chromatography system (Cytiva) using a HisTrap FF column and eluted in IMAC buffer B ((20 mM HEPES pH7.5, 500 mM imidazole, 500 mM sodium chloride, 0.15 mM pyridoxal phosphate, 0.5 mM TCEP) followed by SEC using a HiLoad 26/60 Superdex200 column in SEC buffer (25 mM HEPES pH7.5, 150 mM sodium chloride, 0.15 mM pyridoxal phosphate, 0.5 mM TCEP). Protein concentration was measured and calculated using the absorbance at 280 nm. Extracts were diluted 1 in 4 and 10 uL was analysed by SDS PAGE.
(§2) To measure BIO3-BIO1 mutant enzyme activity in the presence of herbicide, herbicides were incubated with 20 μL of enzyme mix (100 mM EPPS pH 8.6, 0.1 mM pyridoxal phosphate, 0.1 mg/mL BSA, 50 nM BIO3-BIO1 enzyme) for 10 minutes at 20° C. in a well of a 96-well half-area black plate, followed by the addition of 20 μL of substrate mix (final concentration of 100 mM EPPS pH 8.6, 0.1 mM pyridoxal phosphate, 0.1 mg/mL BSA, 100 μM spermidine, 20 μM KAPA, 100 mM NaCO3) and further incubation for 75 minutes at 20° C. The reaction was terminated by the addition of 50 μL of derivatisation mix (final concentration of 250 mM borate NaOH pH 9.4, 3.6 mM o-phthalaldehyde, 7 mM β-mercaptoethanol, 17% (v/v) ethanol, 3.6% (v/v) methanol). The fluorescent product produced by the reaction of DAPA with o-phthalaldehyde and 7 mM β-mercaptoethanol was measured at 470 nm after excitation at 410 nm. The percentage inhibition was calculated as the activity in the presence of one of three concentrations of each herbicide compound A to M (note that the compounds labelled as A to M are identified hereinabove in the relevant section of the description) as a percentage of the activity in DMSO (Table 12 and 13). The percentage activity versus WT was also calculated and is shown in Table 13 and 14 (NT indicates mutation not tested in table 13, note that these mutations are tested at different compound concentrations for compounds L, M and C, and the results are shown in table 14).

[2] = target: T2, Arabidopsis thaliana BIO3-BIO1 (BioDA) mutants (Arabidopsis thaliana, UniProt B0F481, DEL513-513)
T2 construct: with the predicted N-terminal mitochondrial transit peptide removed; 6xHis-tag (N); thrombin cleavage site (N); made in house; host or cells: E. coli BL21 (DE3) bioA
T2 sequence (B0F481 other isoform, or with tags, fused parts or gaps DEL513-513): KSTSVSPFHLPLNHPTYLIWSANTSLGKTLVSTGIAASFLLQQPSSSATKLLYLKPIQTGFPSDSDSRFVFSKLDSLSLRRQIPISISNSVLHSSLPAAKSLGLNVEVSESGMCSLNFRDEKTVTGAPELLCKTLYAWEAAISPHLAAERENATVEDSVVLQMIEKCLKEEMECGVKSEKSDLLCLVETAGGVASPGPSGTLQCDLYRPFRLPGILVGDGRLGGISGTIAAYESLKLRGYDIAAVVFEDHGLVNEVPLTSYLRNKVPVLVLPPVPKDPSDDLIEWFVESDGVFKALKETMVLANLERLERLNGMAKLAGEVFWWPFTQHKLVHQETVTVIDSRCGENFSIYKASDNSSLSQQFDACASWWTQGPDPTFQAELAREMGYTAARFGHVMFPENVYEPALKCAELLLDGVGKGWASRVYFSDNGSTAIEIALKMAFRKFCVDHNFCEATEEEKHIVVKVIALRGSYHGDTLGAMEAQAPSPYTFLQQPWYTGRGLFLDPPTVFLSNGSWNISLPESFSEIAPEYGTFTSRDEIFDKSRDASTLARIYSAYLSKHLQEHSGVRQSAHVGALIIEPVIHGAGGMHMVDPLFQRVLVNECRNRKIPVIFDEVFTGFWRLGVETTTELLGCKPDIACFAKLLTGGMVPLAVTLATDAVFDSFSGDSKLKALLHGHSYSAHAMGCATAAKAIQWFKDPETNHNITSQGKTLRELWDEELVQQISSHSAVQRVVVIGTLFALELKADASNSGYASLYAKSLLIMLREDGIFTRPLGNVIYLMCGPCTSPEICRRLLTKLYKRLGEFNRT
Description: as §1, §2

[3] = target: T3, Arabidopsis thaliana BIO3-BIO1 (BioDA) mutants (Arabidopsis thaliana, UniProt B0F481, P510V)
T3 construct: with the predicted N-terminal mitochondrial transit peptide removed; 6xHis-tag (N); thrombin cleavage site (N); made in house; host or cells: E. coli BL21 (DE3) bioA
T3 sequence (B0F481 23-833 P510V): as the sequence (B0F481 23-833 S704H) above, with P488V, H682S counted along it
Description: as §1, §2

[4] = target: T4, Arabidopsis thaliana BIO3-BIO1 (BioDA) mutants (Arabidopsis thaliana, UniProt B0F481, F348I)
T4 construct: with the predicted N-terminal mitochondrial transit peptide removed; 6xHis-tag (N); thrombin cleavage site (N); made in house; host or cells: E. coli BL21 (DE3) bioA
T4 sequence (B0F481 23-833 F348I): as the sequence (B0F481 23-833 S704H) above, with F326I, H682S counted along it
Description: as §1, §2

[5] = target: T5, Arabidopsis thaliana BIO3-BIO1 (BioDA) mutants (Arabidopsis thaliana, UniProt B0F481, Q517Y)
T5 construct: with the predicted N-terminal mitochondrial transit peptide removed; 6xHis-tag (N); thrombin cleavage site (N); made in house; host or cells: E. coli BL21 (DE3) bioA
T5 sequence (B0F481 23-833 Q517Y): as the sequence (B0F481 23-833 S704H) above, with Q495Y, H682S counted along it
Description: as §1, §2

[6] = target: T6, Arabidopsis thaliana BIO3-BIO1 (BioDA) mutants (Arabidopsis thaliana, UniProt B0F481, G700S)
T6 construct: with the predicted N-terminal mitochondrial transit peptide removed; 6xHis-tag (N); thrombin cleavage site (N); made in house; host or cells: E. coli BL21 (DE3) bioA
T6 sequence (B0F481 23-833 G700S): as the sequence (B0F481 23-833 S704H) above, with G678S, H682S counted along it
Description: as §1, §2

[7] = target: T7, Arabidopsis thaliana BIO3-BIO1 (BioDA) mutants (Arabidopsis thaliana, UniProt B0F481, S509W)
T7 construct: with the predicted N-terminal mitochondrial transit peptide removed; 6xHis-tag (N); thrombin cleavage site (N); made in house; host or cells: E. coli BL21 (DE3) bioA
T7 sequence (B0F481 23-833 S509W): as the sequence (B0F481 23-833 S704H) above, with S487W, H682S counted along it
Description: as §1, §2

[8] = target: T8, Arabidopsis thaliana BIO3-BIO1 (BioDA) mutants (Arabidopsis thaliana, UniProt B0F481, A609M)
T8 construct: with the predicted N-terminal mitochondrial transit peptide removed; 6xHis-tag (N); thrombin cleavage site (N); made in house; host or cells: E. coli BL21 (DE3) bioA
T8 sequence (B0F481 23-833 A609M): as the sequence (B0F481 23-833 S704H) above, with A587M, H682S counted along it
Description: as §1, §2

[9] = target: T9, Arabidopsis thaliana BIO3-BIO1 (BioDA) mutants (Arabidopsis thaliana, UniProt B0F481, W391L)
T9 construct: with the predicted N-terminal mitochondrial transit peptide removed; 6xHis-tag (N); thrombin cleavage site (N); made in house; host or cells: E. coli BL21 (DE3) bioA
T9 sequence (B0F481 23-833 W391L): as the sequence (B0F481 23-833 S704H) above, with W369L, H682S counted along it
Description: as §1, §2

[10] = target: T10, Arabidopsis thaliana BIO3-BIO1 (BioDA) mutants (Arabidopsis thaliana, UniProt B0F481, T512D)
T10 construct: with the predicted N-terminal mitochondrial transit peptide removed; 6xHis-tag (N); thrombin cleavage site (N); made in house; host or cells: E. coli BL21 (DE3) bioA
T10 sequence (B0F481 23-833 T512D): as the sequence (B0F481 23-833 S704H) above, with T490D, H682S counted along it
Description: as §1, §2

[11] = target: T11, Arabidopsis thaliana BIO3-BIO1 (BioDA) mutants (Arabidopsis thaliana, UniProt B0F481, V354L)
T11 construct: with the predicted N-terminal mitochondrial transit peptide removed; 6xHis-tag (N); thrombin cleavage site (N); made in house; host or cells: E. coli BL21 (DE3) bioA
T11 sequence (B0F481 23-833 V354L): as the sequence (B0F481 23-833 S704H) above, with V332L, H682S counted along it
Description: as §1, §2

[12] = target: T12, Arabidopsis thaliana BIO3-BIO1 (BioDA) mutants (Arabidopsis thaliana, UniProt B0F481, T512Q)
T12 construct: with the predicted N-terminal mitochondrial transit peptide removed; 6xHis-tag (N); thrombin cleavage site (N); made in house; host or cells: E. coli BL21 (DE3) bioA
T12 sequence (B0F481 23-833 T512Q): as the sequence (B0F481 23-833 S704H) above, with T490Q, H682S counted along it
Description: as §1, §2

CCOC(=O)c1nn(-c2ccc3c(c2)OC(F)(F)C(F)(F)O3)c2cccc(C(C)=O)c2c1=O [Compound A, ethyl 5-acetyl-4-oxo-1-(2,2,3,3-tetrafluoro-1,4-benzodioxin-6-yl)cinnoline-3-carboxylate]
inhibition at 1 µM [1]: 0%
inhibition at 1 µM [2]: 29%
inhibition at 1 µM [3]: 1%
inhibition at 1 µM [4]: 7%
inhibition at 1 µM [5]: 52%
inhibition at 1 µM [6]: 0%
inhibition at 1 µM [7]: 0%
inhibition at 1 µM [8]: 3%
inhibition at 1 µM [9]: 62%
inhibition at 1 µM [10]: 33%
inhibition at 1 µM [11]: 1%
inhibition at 1 µM [12]: 49%

CCn1c(C)c(-c2ccc(F)cc2F)c(=O)c(C(=O)O)c1-c1ccc(Cl)c(Cl)c1 [Compound C, 2-(3,4-dichlorophenyl)-5-(2,4-difluorophenyl)-1-ethyl-6-methyl-4-oxo-pyridine-3-carboxylic acid]
inhibition at 0.2 µM [1]: 0%
inhibition at 1 µM [1]: 0%
inhibition at 5 µM [1]: 0%
inhibition at 0.2 µM [2]: 69%
inhibition at 1 µM [2]: 90%
inhibition at 5 µM [2]: 98%
inhibition at 0.2 µM [3]: 0%
inhibition at 1 µM [3]: 21%
inhibition at 5 µM [3]: 79%
inhibition at 0.2 µM [4]: 6%
inhibition at 1 µM [4]: 11%
inhibition at 5 µM [4]: 49%
inhibition at 0.2 µM [5]: 49%
inhibition at 1 µM [5]: 86%
inhibition at 5 µM [5]: 97%
inhibition at 0.2 µM [6]: 9%
inhibition at 1 µM [6]: 0%
inhibition at 5 µM [6]: 9%
inhibition at 0.2 µM [7]: 14%
inhibition at 1 µM [7]: 92%
inhibition at 5 µM [7]: 103%
inhibition at 0.2 µM [8]: 9%
inhibition at 1 µM [8]: 5%
inhibition at 5 µM [8]: 13%
inhibition at 0.2 µM [9]: 23%
inhibition at 1 µM [9]: 29%
inhibition at 5 µM [9]: 33%
inhibition at 0.2 µM [10]: 79%
inhibition at 1 µM [10]: 95%
inhibition at 5 µM [10]: 97%
inhibition at 0.2 µM [11]: 0%
inhibition at 1 µM [11]: 32%
inhibition at 5 µM [11]: 86%
inhibition at 0.2 µM [12]: 53%
inhibition at 1 µM [12]: 96%
inhibition at 5 µM [12]: 100%

CCn1c(Cn2ccc(C(F)(F)F)n2)cc(=O)c(C(=O)O)c1-c1ccc(Cl)c(Cl)c1 [Compound L, 2-(3,4-dichlorophenyl)-1-ethyl-4-oxo-6-[[3-(trifluoromethyl)pyrazol-1-yl]methyl]pyridine-3-carboxylic acid]
inhibition at 0.01 µM [2]: 31%
inhibition at 0.075 µM [2]: 30%
inhibition at 0.5 µM [2]: 54%
inhibition at 0.01 µM [3]: 0%
inhibition at 0.075 µM [3]: 0%
inhibition at 0.5 µM [3]: 52%
inhibition at 0.01 µM [4]: 1%
inhibition at 0.075 µM [4]: 3%
inhibition at 0.5 µM [4]: 14%
inhibition at 0.01 µM [6]: 9%
inhibition at 0.075 µM [6]: 3%
inhibition at 0.5 µM [6]: 3%
inhibition at 0.01 µM [8]: 3%
inhibition at 0.075 µM [8]: 17%
inhibition at 0.5 µM [8]: 19%

CCn1c(-c2ccc(Cl)c(Cl)c2)c(C(=O)O)c(=O)c2cc(F)ccc21 [Compound M, 2-(3,4-dichlorophenyl)-1-ethyl-6-fluoro-4-oxo-quinoline-3-carboxylic acid]
inhibition at 0.2 µM [1]: 0%
inhibition at 1 µM [1]: 0%
inhibition at 5 µM [1]: 0%
inhibition at 0.2 µM [2]: 60%
inhibition at 1 µM [2]: 83%
inhibition at 5 µM [2]: 95%
inhibition at 0.2 µM [3]: 0%
inhibition at 1 µM [3]: 0%
inhibition at 5 µM [3]: 62%
inhibition at 0.2 µM [4]: 0%
inhibition at 1 µM [4]: 6%
inhibition at 5 µM [4]: 25%
inhibition at 0.2 µM [5]: 36%
inhibition at 1 µM [5]: 71%
inhibition at 5 µM [5]: 90%
inhibition at 0.2 µM [6]: 8%
inhibition at 1 µM [6]: 0%
inhibition at 5 µM [6]: 9%
inhibition at 0.2 µM [7]: 0%
inhibition at 1 µM [7]: 60%
inhibition at 5 µM [7]: 95%
inhibition at 0.2 µM [8]: 5%
inhibition at 1 µM [8]: 0%
inhibition at 5 µM [8]: 11%
inhibition at 0.2 µM [9]: 18%
inhibition at 1 µM [9]: 16%
inhibition at 5 µM [9]: 43%
inhibition at 0.2 µM [10]: 59%
inhibition at 1 µM [10]: 86%
inhibition at 5 µM [10]: 96%
inhibition at 0.2 µM [11]: 4%
inhibition at 1 µM [11]: 43%
inhibition at 5 µM [11]: 78%
inhibition at 0.2 µM [12]: 49%
inhibition at 1 µM [12]: 91%
inhibition at 5 µM [12]: 99%
